Active and inactive are the calls of the source.
How the values were obtained:
[1] = (§1) Counterscreen for antagonists of the orexin 1 receptor (OX1R; HCRTR1): Fluorescence-based cell-based high throughput dose response assay to identify antagonists of the parental CHO cell line. [Related pubchem assays (depositor defined):AID434989, AID435008, AID463079, AID485270, AID492963, AID492964, AID492965, AID493232, AID504699, AID504701]; type: functional
Orexin receptor type 2 [2] = target: T1, Orexin receptor type 2 (Homo sapiens, UniProt O43614); assay: Counterscreen assay for antagonists of the orexin 1 receptor (OX1R; HCRTR1): Fluorescence-based cell-based dose response assay for antagonists of the orexin 2 receptor (OX2R; HCRTR2), run by assay provider.; type: functional
T1 sequence (O43614 whole entry): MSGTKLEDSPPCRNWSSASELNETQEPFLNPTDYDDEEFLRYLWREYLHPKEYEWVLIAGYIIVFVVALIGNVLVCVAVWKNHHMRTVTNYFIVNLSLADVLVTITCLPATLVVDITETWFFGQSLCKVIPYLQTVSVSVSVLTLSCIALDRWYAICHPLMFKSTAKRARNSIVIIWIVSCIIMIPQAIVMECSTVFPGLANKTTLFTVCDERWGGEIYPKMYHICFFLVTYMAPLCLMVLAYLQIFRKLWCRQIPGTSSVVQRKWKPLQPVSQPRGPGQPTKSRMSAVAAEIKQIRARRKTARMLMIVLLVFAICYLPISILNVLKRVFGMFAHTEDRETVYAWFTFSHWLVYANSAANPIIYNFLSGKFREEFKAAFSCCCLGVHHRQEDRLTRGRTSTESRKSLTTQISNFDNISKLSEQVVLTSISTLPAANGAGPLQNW

Orexin receptor type 2 [3] = target: T1, Orexin receptor type 2; assay: Counterscreen assay for antagonists of the orexin 1 receptor (OX1R; HCRTR1): Homogeneous Time Resolved Fluorescence (HTRF)-based cell-based dose response assay for antagonists of the orexin 2 receptor (OX2R; HCRTR2), run by assay provider.; type: functional
CHO-K1 = assay: as §1, with “Homogeneous time resolved fluorescence (HTRF)-based” for “Fluorescence-based”, “cell-based” for “cell-based high throughput”, “CHO-K1” for “CHO”; type: functional; details: Cricetulus griseus;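 further: potency for inhibition of ATP-stimulated IP1 production as antagonists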
[4] = target: T2, Orexin/Hypocretin receptor type 1 (Homo sapiens, UniProt O43613); assay: (§2) Fluorescence-based cell-based high throughput dose response assay for antagonists of the orexin 1 receptor (OX1R; HCRTR1). [Related pubchem assays (depositor defined):AID434989, AID435008, AID463079, AID485270, AID492963, AID492964, AID492965, AID493232, AID504717, AID504718]; type: functional
T2 sequence (O43613 whole entry): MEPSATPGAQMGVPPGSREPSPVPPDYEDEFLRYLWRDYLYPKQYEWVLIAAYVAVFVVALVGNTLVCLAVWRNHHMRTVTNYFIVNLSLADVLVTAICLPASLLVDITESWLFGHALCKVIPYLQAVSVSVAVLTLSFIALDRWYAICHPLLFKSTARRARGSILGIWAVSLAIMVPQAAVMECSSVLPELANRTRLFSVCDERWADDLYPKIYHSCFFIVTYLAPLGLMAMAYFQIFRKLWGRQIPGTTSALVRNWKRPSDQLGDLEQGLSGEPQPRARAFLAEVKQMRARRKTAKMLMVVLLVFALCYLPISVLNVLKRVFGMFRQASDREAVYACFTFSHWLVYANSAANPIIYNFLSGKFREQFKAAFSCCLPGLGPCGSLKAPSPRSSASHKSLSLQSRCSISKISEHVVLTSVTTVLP

[5] = target: T2, Orexin/Hypocretin receptor type 1; assay: as §2, with “Homogeneous Time Resolved Fluorescence (HTRF)-based” for “Fluorescence-based”; type: functional
Vero = assay: viability of Vero cells under compound – cytotoxicity control for flavivirus capping enzyme inhibitors (AID 588742); type: functional; details: Chlorocebus sabaeus
[6] = NIH3T3 cell viability loss – ATP luminescence, mouse fibroblasts, counter-screen, dose response (AID 2010); type: functional, cell-based;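 further: cells exposed to compound for about 90 hours before reading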
Genome polyprotein = Genome polyprotein (dengue virus type 2, UniProt P29990); assay: flavivirus cap methylation enzyme inhibition – biochemical, confirmation dose response, primary screen (AID 588689); type: functional
Sequence of Genome polyprotein (P29990 2492-3391 limits assumed): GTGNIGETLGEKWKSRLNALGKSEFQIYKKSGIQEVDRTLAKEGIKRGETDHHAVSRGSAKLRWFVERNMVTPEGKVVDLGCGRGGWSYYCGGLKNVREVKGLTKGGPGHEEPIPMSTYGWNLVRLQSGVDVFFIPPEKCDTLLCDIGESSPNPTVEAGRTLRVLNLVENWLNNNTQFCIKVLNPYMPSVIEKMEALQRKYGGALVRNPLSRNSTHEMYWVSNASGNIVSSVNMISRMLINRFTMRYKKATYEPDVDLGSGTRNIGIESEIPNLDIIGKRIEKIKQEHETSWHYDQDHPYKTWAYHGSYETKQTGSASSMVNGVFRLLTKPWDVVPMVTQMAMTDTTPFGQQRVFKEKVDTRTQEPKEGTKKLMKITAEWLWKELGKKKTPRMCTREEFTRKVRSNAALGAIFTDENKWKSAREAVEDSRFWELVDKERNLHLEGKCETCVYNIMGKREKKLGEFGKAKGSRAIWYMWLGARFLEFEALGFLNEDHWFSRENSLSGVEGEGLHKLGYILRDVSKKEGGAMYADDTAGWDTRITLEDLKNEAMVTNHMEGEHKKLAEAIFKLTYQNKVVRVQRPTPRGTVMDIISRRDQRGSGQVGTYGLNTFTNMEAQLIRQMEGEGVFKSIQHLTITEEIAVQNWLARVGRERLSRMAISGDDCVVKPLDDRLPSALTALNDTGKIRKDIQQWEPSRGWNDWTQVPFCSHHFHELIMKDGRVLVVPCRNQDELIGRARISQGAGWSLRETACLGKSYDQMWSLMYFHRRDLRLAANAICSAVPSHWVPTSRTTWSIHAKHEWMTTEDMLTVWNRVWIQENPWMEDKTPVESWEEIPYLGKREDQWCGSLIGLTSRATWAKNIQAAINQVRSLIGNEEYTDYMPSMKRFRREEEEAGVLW

[7] = target: T3, Replicative DNA helicase DnaB (Mycobacterium tuberculosis, UniProt P9WMR3); assay: DnaB intein splicing inhibitors, dose response, biochemical, cell-free fluorescence (AID 449749); type: functional
T3 sequence (P9WMR3 whole entry): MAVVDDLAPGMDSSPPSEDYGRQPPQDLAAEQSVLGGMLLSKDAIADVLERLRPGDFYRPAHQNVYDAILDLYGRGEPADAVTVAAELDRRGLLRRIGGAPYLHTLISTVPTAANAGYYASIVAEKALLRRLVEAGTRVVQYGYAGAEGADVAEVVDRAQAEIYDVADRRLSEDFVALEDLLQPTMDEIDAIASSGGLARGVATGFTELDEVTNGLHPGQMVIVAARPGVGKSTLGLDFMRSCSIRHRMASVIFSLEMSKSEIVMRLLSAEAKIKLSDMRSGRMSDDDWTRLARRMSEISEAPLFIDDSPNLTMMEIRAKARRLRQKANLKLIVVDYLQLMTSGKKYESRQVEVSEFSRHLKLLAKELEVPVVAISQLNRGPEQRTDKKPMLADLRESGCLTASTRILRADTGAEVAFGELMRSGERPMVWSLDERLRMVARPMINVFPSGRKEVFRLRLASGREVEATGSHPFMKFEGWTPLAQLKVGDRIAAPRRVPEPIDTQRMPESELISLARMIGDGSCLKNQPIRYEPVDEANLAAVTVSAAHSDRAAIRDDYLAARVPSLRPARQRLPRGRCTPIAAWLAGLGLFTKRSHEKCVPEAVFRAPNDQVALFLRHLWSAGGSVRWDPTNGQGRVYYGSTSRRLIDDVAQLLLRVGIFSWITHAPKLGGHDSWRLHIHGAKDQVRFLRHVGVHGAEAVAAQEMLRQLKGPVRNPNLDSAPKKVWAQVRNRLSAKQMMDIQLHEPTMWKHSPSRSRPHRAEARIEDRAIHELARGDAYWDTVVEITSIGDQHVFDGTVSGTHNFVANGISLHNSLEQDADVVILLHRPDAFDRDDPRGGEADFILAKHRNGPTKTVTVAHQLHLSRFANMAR

[8] = microbe, parasite or virus in culture; type: functional; details: Mycobacterium tuberculosis
Protein RecA = target: T4, Protein RecA (Mycobacterium tuberculosis, UniProt P9WHJ3); assay: Fluorescence Cell-Free Homogeneous Dose Retest to Identify Inhibitors of RecA-Intein Splicing Activity. [Related pubchem assays (depositor defined):AID2097, AID2223, AID489010, AID492950]; type: functional
T4 sequence (P9WHJ3 whole entry): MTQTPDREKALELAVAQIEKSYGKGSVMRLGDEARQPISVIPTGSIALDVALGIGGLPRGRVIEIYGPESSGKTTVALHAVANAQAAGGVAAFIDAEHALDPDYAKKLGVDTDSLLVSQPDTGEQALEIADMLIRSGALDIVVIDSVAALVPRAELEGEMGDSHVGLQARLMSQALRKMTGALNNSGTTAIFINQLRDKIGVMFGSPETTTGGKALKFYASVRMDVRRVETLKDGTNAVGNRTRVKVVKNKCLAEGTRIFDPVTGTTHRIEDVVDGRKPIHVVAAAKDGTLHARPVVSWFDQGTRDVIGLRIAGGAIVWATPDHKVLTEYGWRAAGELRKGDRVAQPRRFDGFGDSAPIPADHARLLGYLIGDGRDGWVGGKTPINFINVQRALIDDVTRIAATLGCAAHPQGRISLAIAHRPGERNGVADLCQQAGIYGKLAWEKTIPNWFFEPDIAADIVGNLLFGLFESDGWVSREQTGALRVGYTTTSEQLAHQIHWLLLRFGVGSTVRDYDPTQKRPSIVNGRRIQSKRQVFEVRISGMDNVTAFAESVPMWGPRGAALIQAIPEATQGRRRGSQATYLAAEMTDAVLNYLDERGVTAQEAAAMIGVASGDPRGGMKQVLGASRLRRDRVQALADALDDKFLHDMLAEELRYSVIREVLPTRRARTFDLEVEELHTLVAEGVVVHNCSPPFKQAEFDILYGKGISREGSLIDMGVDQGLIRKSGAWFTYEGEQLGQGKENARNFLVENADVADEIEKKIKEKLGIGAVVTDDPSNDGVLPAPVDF

[9] = Trypanosoma cruzi growth suppression in host cells – NIH3T3 host cells, beta-gal luminescence, confirmation (AID 2044); type: functional, cell-based;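 further: intracellular parasites grown in NIH/3T3 mouse fibroblasts as host cells; luminescent beta-galactosidase reporter signal from transgenic T. cruzi replicating inside host cells; inhibitors lower the luminescence signal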
HEK293 [10] = assay: optical interference in Abeta FP readout, dose response, artefact control for IDE activator project, biochemical, fluorescence polarization (AID 588442); type: functional, cell-based; details: Homo sapiens
HEK293 [11] = assay: membrane integrity loss in HEK cells – cell-based, fluorescence, cytotoxicity control for IDE activator project, dose response (AID 588440); type: functional; details: Homo sapiens;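 further: cytotoxicity by LDH release measuring loss of membrane integrity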
Insulin-degrading enzyme [12] = target: T5, Insulin-degrading enzyme (Homo sapiens, UniProt P14735); assay: recombinant IDE activation, cell-free – biochemical, fluorescence polarization, counter-screen for IDE activator project, dose response (AID 588681)
T5 sequence (P14735 whole entry): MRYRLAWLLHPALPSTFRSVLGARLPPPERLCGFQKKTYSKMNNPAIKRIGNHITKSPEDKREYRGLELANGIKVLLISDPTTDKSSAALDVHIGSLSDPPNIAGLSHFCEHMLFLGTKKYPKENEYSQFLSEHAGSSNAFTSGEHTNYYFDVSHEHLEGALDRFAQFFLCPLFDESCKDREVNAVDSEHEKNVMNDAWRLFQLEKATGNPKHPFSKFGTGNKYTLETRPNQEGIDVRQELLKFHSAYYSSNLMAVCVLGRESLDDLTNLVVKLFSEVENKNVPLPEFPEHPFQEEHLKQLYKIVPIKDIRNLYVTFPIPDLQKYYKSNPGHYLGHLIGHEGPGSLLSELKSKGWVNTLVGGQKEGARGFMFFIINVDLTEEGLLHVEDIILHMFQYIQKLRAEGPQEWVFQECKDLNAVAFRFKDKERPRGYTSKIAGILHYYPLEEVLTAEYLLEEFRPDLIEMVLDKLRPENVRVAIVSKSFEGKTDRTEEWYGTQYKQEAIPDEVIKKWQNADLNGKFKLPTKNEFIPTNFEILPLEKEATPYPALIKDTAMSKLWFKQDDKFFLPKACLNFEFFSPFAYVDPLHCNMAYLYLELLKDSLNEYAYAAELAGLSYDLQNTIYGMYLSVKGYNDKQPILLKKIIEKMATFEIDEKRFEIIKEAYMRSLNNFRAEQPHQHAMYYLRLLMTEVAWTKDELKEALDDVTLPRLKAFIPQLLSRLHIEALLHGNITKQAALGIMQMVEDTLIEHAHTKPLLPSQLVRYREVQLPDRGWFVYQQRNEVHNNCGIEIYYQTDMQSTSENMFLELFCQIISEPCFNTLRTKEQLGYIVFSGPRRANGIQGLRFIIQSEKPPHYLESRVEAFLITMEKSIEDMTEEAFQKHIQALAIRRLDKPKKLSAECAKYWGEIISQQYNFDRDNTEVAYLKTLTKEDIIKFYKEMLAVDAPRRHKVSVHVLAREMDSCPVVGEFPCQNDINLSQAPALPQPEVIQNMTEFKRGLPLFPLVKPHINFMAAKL

Estrogen receptor beta = Estrogen receptor beta (Homo sapiens, UniProt Q92731);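 further: recombinant ER-beta bound to coactivator SRC1 peptide in presence of estradiol agonist; inhibitors block coactivator peptide binding and lower the FRET signal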
Sequence of Estrogen receptor beta (Q92731 whole entry): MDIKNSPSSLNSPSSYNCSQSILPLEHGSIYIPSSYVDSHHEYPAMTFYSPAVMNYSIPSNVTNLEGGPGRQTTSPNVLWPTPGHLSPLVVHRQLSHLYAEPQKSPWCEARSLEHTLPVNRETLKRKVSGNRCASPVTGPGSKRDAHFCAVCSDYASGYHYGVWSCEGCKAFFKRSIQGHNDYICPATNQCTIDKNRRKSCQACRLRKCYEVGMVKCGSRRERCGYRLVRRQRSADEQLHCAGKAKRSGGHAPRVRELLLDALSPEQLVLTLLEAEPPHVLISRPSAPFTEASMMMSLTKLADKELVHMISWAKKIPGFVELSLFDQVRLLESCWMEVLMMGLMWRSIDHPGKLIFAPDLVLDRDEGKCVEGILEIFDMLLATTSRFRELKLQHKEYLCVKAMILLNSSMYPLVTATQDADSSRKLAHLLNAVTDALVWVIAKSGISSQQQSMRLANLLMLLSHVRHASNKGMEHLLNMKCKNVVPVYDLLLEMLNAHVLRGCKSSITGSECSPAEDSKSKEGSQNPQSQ

Insulin-degrading enzyme [13] = target: T5, Insulin-degrading enzyme; assay: cellular IDE activation of Abeta substrate cleavage – fluorescence polarization, HEK cells, dose response (AID 588439); type: functional, cell-based
[14] = cAMP pathway inhibition in counterscreen cell line – TR-FRET cAMP detection, counter-screen for MC4R biased antagonist project, dose response (AID 602305); type: functional, cell-based;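 further: U2OS cells stimulated with forskolin near its EC80 as the cAMP inducer; potency is for inhibition of forskolin-stimulated cAMP signaling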
Melanocortin receptor 4 = Melanocortin receptor 4 (Homo sapiens, UniProt P32245); assay: inhibitors of MC4R cAMP signaling – cell-based, TR-FRET, biased antagonists, dose response (AID 602298); type: functional;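 further: antagonist potency against agonist-stimulated cAMP production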
Sequence of Melanocortin receptor 4 (P32245 whole entry): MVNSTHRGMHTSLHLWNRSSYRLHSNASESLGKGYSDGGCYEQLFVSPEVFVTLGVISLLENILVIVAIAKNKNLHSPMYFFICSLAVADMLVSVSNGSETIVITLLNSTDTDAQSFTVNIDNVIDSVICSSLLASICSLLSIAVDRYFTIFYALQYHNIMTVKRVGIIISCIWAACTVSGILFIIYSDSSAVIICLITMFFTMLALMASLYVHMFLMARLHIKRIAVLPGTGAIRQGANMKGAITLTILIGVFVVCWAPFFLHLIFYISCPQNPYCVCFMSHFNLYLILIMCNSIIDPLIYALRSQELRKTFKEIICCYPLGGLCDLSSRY

With Cc1cc(NC(=O)CCC(=O)N(Cc2cccs2)C(C(=O)NC2CCCC2)c2ccccc2)no1 (centres undefined) the IC50 [1] was > 49.8 µM (inactive), the IC50 (Orexin receptor type 2 [2]) was 42.4 µM (inactive) and the IC50 (Orexin receptor type 2 [3]) was > 50 µM (inactive). For the same molecule, the IC50 (CHO-K1) was > 66.2 µM (inactive), the IC50 [4] was 12.7 µM (inactive) and the IC50 [5] was 0.315 µM (active).
With O=[N+]([O-])c1cc([N+](=O)[O-])c2c(Nc3ccccc3)n(-c3ccccc3)[n+]([O-])c2c1 the CC50 (Vero) was 38.9 µM (active), the EC50 [6] was > 60 µM (not active) and the IC50 (Genome polyprotein) was 30.9 µM (active). The AC50 [7] was 5.84 µM (active), the CC50 [8] was 29.7 µM (active) and the EC50 (Protein RecA) was 1.97 µM (active). For the same molecule, the EC50 [9] was 0.313 µM (active).
For C=CCNc1nc(N(c2ccccc2)c2ccccc2)nc(-n2ccnc2)n1, the IC50 [1] was > 49.8 µM (inactive), the IC50 (Orexin receptor type 2 [2]) was > 88.8 µM (inactive) and the IC50 (Orexin receptor type 2 [3]) was > 50 µM (inactive). The IC50 (CHO-K1) was > 66.2 µM (inactive), the IC50 [4] was > 49.8 µM (inactive) and the IC50 [5] was 6.47 µM (active).
With CC(=O)Nc1cc2c(cc1C(=O)c1ccccc1)OCCO2 the EC50 (HEK293 [10]) was > 54.7 µM (inactive), the IC50 (HEK293 [11]) was > 89.2 µM (inactive) and the EC50 (Insulin-degrading enzyme [12]) was > 54.7 µM (inactive). The IC50 (Estrogen receptor beta) was > 50 µM (not active) and the EC50 (Insulin-degrading enzyme [13]) was > 54.7 µM (inactive).
In the case of Cc1ccc(S(=O)(=O)N(C)CC(=O)OCC(=O)NC(=O)NC(C)C)cc1, the IC50 [14] is reported as > 64.6 µM (inactive) and the IC50 (Melanocortin receptor 4) is reported as > 64.6 µM (inactive).
For COc1ccc(CNc2nc3ccccc3n2CCN2CCOCC2)cc1, the EC50 (HEK293 [10]) was > 55.9 µM (inactive), the IC50 (HEK293 [11]) was > 89.1 µM (inactive) and the EC50 (Insulin-degrading enzyme [12]) was > 54.7 µM (inactive). For the same molecule, the EC50 (Insulin-degrading enzyme [13]) was > 54.7 µM (inactive).
In the case of O=C(c1cc([N+](=O)[O-])ccc1N1CCOCC1)N1CCN(c2ccc([N+](=O)[O-])cc2)CC1, the EC50 (HEK293 [10]) is reported as 1.09 µM (active), the IC50 (HEK293 [11]) is reported as > 89.2 µM (inactive) and the EC50 (Insulin-degrading enzyme [12]) is reported as 3.64 µM (active). The EC50 (Insulin-degrading enzyme [13]) was 3.16 µM (active).

Source: ChEMBL document CHEMBL1201862, “PubChem BioAssay data set” (2004)
